Assay results from BigSolDB 2.1.

C=CC(=O)N1CCC[C@@H](n2nc(-c3ccc(Oc4ccccc4)cc3)c3c(N)ncnc32)C1
solubility (mole fraction)
Details	298.15 K	303.15 K	308.15 K	313.15 K	323.15 K
in transcutol	0.0267	0.0288	0.0318	0.0341	0.0392
in water	1.43e-07	2.21e-07	3.11e-07	4.13e-07	7.69e-07
